Here are results for five compounds from publication PMC12160547, “Identification of a Novel Small Molecule STING Agonist Reshaping the Immunomicroenvironment of Pancreatic Ductal Adenocarcinoma” (International Journal of Biological Sciences, 2025).

The conditions of series [1]: cited from earlier work.
The target of another series is T1, m-STING (Mus musculus, UniProt Q3TBT3).
T1 construct: Raw-lucia Fold (50 μM); endogenous in cells; host or cells: RAW-Lucia
T1 sequence (Q3TBT3 1-378): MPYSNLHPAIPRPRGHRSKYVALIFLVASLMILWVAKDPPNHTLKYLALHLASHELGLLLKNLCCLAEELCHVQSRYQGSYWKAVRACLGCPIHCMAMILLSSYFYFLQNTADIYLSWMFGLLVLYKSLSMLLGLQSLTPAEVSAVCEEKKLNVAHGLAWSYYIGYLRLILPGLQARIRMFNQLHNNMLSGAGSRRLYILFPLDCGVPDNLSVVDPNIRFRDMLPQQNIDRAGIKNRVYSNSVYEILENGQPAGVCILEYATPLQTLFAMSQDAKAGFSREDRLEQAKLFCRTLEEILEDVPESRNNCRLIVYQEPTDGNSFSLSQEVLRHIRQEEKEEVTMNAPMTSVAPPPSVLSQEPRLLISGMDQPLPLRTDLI
Description: Raw-lucia reporter activation fold. The format is cell-based.

Series [2] is described as follows: Pharmacokinetic parameters, i.v. and p.o. The format is in vivo.
In a further series the test system is STING signaling. Description: Relative gene expression in RAW-Lucia cells (RT-qPCR). The format is cell-based, mouse. The procedure:
(§1) RNA from tumor tissues or cells was extracted using the SteadyPure Universal RNA Extraction Kit (Accurate Biology) and reverse transcribed into cDNA with the Evo M-MLV Reverse Transcription Kit (Accurate Biology). Relative RNA expression levels were quantified using 2X Universal SYBR Green Fast qPCR Mix (Abclonal), and the results were recorded on the qTOWER®3 84 Real-Time PCR system.

Another series addresses T2, h-STING (Homo sapiens, UniProt Q86WV6, G230A/R293Q/R71H).
T2 construct: THP1-Dual Fold (10 μM); endogenous in cells; host or cells: THP1-Dual
The series is described as follows: THP1-Dual reporter activation fold. The format is cell-based.

Series [3] concerns cGAS-STING pathway. More on the design: method as in PMID 31036082. The settings on record: cited from earlier work.
Series [4] deals with cGAS-STING pathway. Description: cGAS-STING pathway, IFN-β and ISG readout in pancreatic cancer organoids. The format is cell-based, human. To be noted: TBK1 inhibitor added to culture medium. The procedure: Tumor tissues or cells were thoroughly lysed in RIPA buffer containing protease and phosphatase inhibitors. The lysates were then centrifuged to collect the supernatant. Proteins were separated by electrophoresis in MOPS buffer and subsequently transferred onto a PVDF membrane. After blocking, the membrane was sequentially incubated with the primary antibody, secondary antibody, and chemiluminescent substrate (ECL) for imaging.
as §1
(§2) Multiplex cytokine detection was performed using Luminex cytokine bead array technology provided by WayenBio, Shanghai. In the mouse tumor model, levels of multiple cytokines were simultaneously measured and normalized to tumor weight. For the quantification of specific cytokines, such as IL-6 and IFN-β, enzyme-linked immunosorbent assay (ELISA) kits from Abclonal were used. The assays were conducted according to the manufacturer's instructions.

For series [5], the system named is subcutaneous pancreatic tumor. The series is described as follows: Subcutaneous pancreatic tumor model. The format is in vivo, C57BL/6 mice. To be noted: co-administered with D166. The procedure:
C57BL/6 mice were obtained from Phenotek (Shanghai) and randomly assigned to groups, with a minimum of six mice per group. For the subcutaneous tumor model, approximately 5 × 10^5 tumor cells were suspended in 150 μL PBS and injected into the left flank of the mice. Tumor size was measured every four days starting from day 7 post-injection. On days 9, 12, and 15, the mice were administered three different concentrations of the drug via peritumoral injection, while the Control group received only the solvent. The mice were euthanized on day 25, and tumors were excised, weighed, and further analyzed.
as §2

T2 sequence (Q86WV6 whole entry R71H/G230A/R293Q): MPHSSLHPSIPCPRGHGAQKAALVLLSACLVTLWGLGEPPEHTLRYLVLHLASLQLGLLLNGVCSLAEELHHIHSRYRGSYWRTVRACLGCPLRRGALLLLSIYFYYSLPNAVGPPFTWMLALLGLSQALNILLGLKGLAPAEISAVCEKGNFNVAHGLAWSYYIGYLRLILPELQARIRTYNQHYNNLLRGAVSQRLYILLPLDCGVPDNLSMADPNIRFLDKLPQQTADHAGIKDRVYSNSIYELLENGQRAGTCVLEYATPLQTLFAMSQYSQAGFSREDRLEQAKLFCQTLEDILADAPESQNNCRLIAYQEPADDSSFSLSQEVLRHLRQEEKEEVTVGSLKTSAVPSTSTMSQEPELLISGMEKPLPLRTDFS

`Nc1nc2c(ncn2[C@@H]2O[C@@H]3CO[P@@](=O)(S)O[C@H]4[C@H](F)[C@H](n5cnc6c(N)ncnc65)O[C@@H]4CO[P@@](=O)(S)O[C@@H]2[C@@H]3F)c(=O)[nH]1` [MK-1454]: in series [1] (single-agent treatment group), the “efficacy in clinical study” value was “limited efficacy as a monotherapy”.
`COc1cc2cc(C(=O)CCC(=O)O)sc2cc1OC` [MSA-2, reference compound]: on m-STING, the “Raw-lucia Fold (50 μM)” value is given as 22.59 Fold. In addition, in series [2] (i.v., average of three runs), the AUCInf is 1372 ng·h/mL, the CL is recorded as 12.3 mL/min/kg, the MRTInf is 15.6 min and the T1/2 came to 39.6 min. The Vz in series [2] (i.v., average of three runs) is recorded as 0.70 L/kg. Moreover, in series [2] (p.o., average of three runs), the AUCInf was determined as 2852 ng·h/mL, the MRTInf amounted to 53.4 min and the T1/2 stood at 65.4 min. The F in series [2] (p.o., oral bioavailability) was 69.3%. Moreover, in the series on STING signaling, the “Relative expression (Cxcl10/actin)” value is 179.40 ± 2.58 and the “Relative expression (Ifnb/actin)” value is given as 125.70 ± 3.06. Besides, the “THP1-Dual Fold (10 μM)” value on h-STING was determined as 43.09 Fold.
In the case of `Cc1ccc2c(=O)c3cccc(CC(=O)O)c3oc2c1C` [DMXAA, 5,6-Dimethylxanthenone-4-acetic acid], the “species in which the cGAS-STING pathway is activated” value in the series on cGAS-STING pathway [3] is recorded as “only in mice”.
Regarding `O=C(NCCCNc1nc(Nc2cccc(CN3CCOCC3)c2)ncc1C1CC1)C1CCC1` [MRT67037, reference compound], the “effect on D166-induced ISG activation in organoids” value with cGAS-STING pathway [4] is recorded as “rescued the D166-induced ISG activation”. Besides, in series [5], the “effect on the tumor-killing effect of D166” value is recorded as “counteracted the tumor-killing effect of D166”.
For the compound `Nc1ncnc2c1ncn2[C@@H]1O[C@@H]2COP(=O)([S-])O[C@@H]3[C@H](O)[C@@H](COP([O-])(=S)O[C@H]2[C@H]1O)O[C@H]3n1cnc2c(N)ncnc21.[Na+].[Na+]` (stereo partly drawn) [ADU-S100], in series [1], the “reason for termination in phase I clinical trials” value was “poor drug stability and systemic toxicity”.
